Reference: patent US7205383B2, “Peptide ligands of leukocyte integrins” (Karyon-CTT Ltd., priority 2001, dated 2007)
Ends that are not written are not given here.

How the values were obtained:
αMβ2 integrin = molecular target: T1, αMβ2 integrin (Homo sapiens, UniProt P11215); test: Integrin binding assay, immunocaptured integrin (MEM170 or OKM1); settings: for binding of GST protein to immunocaptured αMβ2 integrin: 10 μg/ml, 1 mM MnCl2, integrin captured with MEM170 or OKM1, anti-GST detection
T1 construct: integrin from a blood cell lysate was immunocaptured on microtiter wells; from tissue; host or cells: blood buffy coat lysate in octylglucoside
Method: Purified LLG-C4-GST or GST control (2 μg/well) was allowed to bind for 60 min in the absence or presence of EDTA. After washing, the bound GST protein was determined by using anti-GST antibodies. […] The experiment was repeated three times with similar results.
(§1) Integrin was immunocaptured on microtiter wells that were coated with the αM subunit antibodies OKM1 or MEM170, the αx subunit antibody TS2/4 or non-specific IgG (Dako, Carpinteria, Calif.). The antibodies were coated at a concentration of 10 μg/ml in TBS overnight at 4° C. After saturation of the wells with 5% BSA, a 200 μl aliquot of the buffy coat lysate in 1% octylglucoside/1 mM MnCl2/TBS was allowed to incubate for 2 h at 4° C. The wells were then washed five times with the octylglucoside-containing buffer. LLG-C4-GST or control GST was incubated at a concentration of 10 μg/ml in 25 mM octylglucoside TBS/1 mM MnCl2 for an hour. Following washing of the wells, the bound GST was determined with anti-GST antibodies (Amersham Pharmacia), which were labeled with an Eu^3+-chelate according to the instructions of the manufacturer (Wallac, Turku, Finland). The Eu^3+-fluorescence was measured with a 1230 Arcus fluorometer (Wallac). For examination of the I-domain binding, we used the recombinant αM I-domain expressed as a GST fusion protein in E. coli as described (Ueda et al., 1994). […] The I-domain was coated on microtiter wells at a concentration of 20 μg/ml, and the binding of LLG-C4-GST and GST was studied.

αM subunit I-domain = molecular target: T2, αM subunit I-domain (Homo sapiens, UniProt P11215); test: I-domain binding assay; settings: for inhibition of LLG-C4-GST binding to the I-domain: LLG-C4-GST 10 μg/ml, peptides 100 μM, EDTA 2.5 mM; for binding to isolated I-domain of the αM subunit: 0.01–100 μg/ml, 60 min
T2 construct: GST (cleaved yes); made in house; host or cells: E. coli
Method: In FIG. 1(B), LLG-C4-GST or GST was incubated for 60 min in microtiter wells coated with purified αM subunit I-domain. The concentrations of GST proteins were as indicated. After washing, the bound GST was determined with anti-GST antibodies. The results are means ±SD from triplicate wells. The results were similar in two other experiments.
After a 60 min incubation, the wells were washed and the binding was determined with anti-GST antibodies. The results are the means ±SD from triplicate wells.
as §1

[1] = tested on: αXβ2 integrin-transfected L cells; test: Adhesion of αXβ2 integrin-transfected L cells to LLG-C4-GST; type: cell-based, mouse
Method: (§2) Fibrinogen, fibronectin, von Wrlnebrand factor, type IV collagen, GST fusion proteins, Fc fusion proteins or synthetic peptides were coated on microtiter wells at a concentration of 2 μg in 50 μl TBS unless otherwise indicated. A recombinant von Willebrand factor and a capturing antibody to it kindly provided by Drs. J. J. Sixma and Ph. G. de Groot (University Medical Center Utrecht, the Netherlands) were also used. To prepare polymerized peptides, glutaraldehyde was added at a final concentration of 0.25%. The wells were saturated with 5% BSA and then washed five times with PBS. Prior to adhesion assays, cells were treated with 50 nM 40-Phorbol 12,13-dibutyrate or with 200 μM P1 peptide (Kotovuori et al., 1999) in serum-free medium for 30 min at room temperature to activate the integrins. Alternatively, cells were stimulated for 60 min at 37° C. with the phorbol ester (50 nM) and the C(1–8;3–9) and RGD-4C peptides each at a 2.5 μM concentration, after which the peptides were removed by washing with PBS/2.5 mM EDTA. Cells were incubated in the microtiter wells (100 000 cells per well) for 60 min at 37° C. in the absence or presence of competing peptides, antibodies or EDTA. […] The bound cells were determined by an assay measuring cellular phosphatase activity. […] The absorbance at 405 nm was read on a microplate reader. […]

[2] = tested on: THP-1 cells (β2 integrins); settings: for competition of THP-1 cell adhesion on LLG-C4-GST substratum: soluble pentapeptides, CLLGC at concentrations of 1 mM or higher
Method: In FIG. 2(A), phorbol ester-activated THP-1 cells were allowed to bind for 60 min to microtiter wells coated with LLG-C4-GST, GST, or albumin. EDTA was included at a 2.5 mM concentration. The bound cells were determined by the assay measuring cellular phosphatase activity. The data are the means ±SD from triplicate wells.
In FIG. 2(B), THP-1 cells were mixed with each antibody against the β1, β2, β3, αL, αM, or αX integrin subunit as indicated at a concentration of […]. An aliquot of cells was then transferred to wells coated with LLG-C4-GST and incubated for 60 min at 37° C. Following washing the bound cells were determined by the phosphatase assay. The results are the mean % adhesion ±SD of 2–4 independent experiments each done in triplicate wells.
In FIG. 3(A), TBP-1 cells were mixed in suspension with the peptide containing either the C(1–8;3–9) or C(1–9;3–8) disulfide. The final concentrations of the peptides are indicated. Cells were then incubated for 60 min at 37° C. in microtiter wells coated with LLG-C4-GST. After washing the wells, the bound cells were quantitated by the phosphatase assay. The results are the mean ±SD from triplicate wells.
In FIG. 3(B), THP-1 cell binding to LLG-C4-GST was examined in the presence of the C(1–8;3–9), CLLGC (SEQ ID NO: 4) or the CAAGC (SEQ ID NO: 5) peptide. The synthetic peptides were used at the concentrations indicated. Following a 60 min incubation the wells were washed and the bound cells were determined by the phosphatase assay.
Fibrinogen, fibronectin, von Wrlnebrand factor, type IV collagen, GST fusion proteins, Fc fusion proteins or synthetic peptides were coated on microtiter wells at a concentration of 2 μg in 50 μl TBS unless otherwise indicated. A recombinant von Willebrand factor and a capturing antibody to it kindly provided by Drs. J. J. Sixma and Ph. G. de Groot (University Medical Center Utrecht, the Netherlands) were also used. To prepare polymerized peptides, glutaraldehyde was added at a final concentration of 0.25%. The wells were saturated with 5% BSA and then washed five times with PBS. Prior to adhesion assays, cells were treated with 50 nM 40-Phorbol 12,13-dibutyrate or with 200 μM P1 peptide (Kotovuori et al., 1999) in serum-free medium for 30 min at room temperature to activate the integrins. Alternatively, cells were stimulated for 60 min at 37° C. with the phorbol ester (50 nM) and the C(1–8;3–9) and RGD-4C peptides each at a 2.5 μM concentration, after which the peptides were removed by washing with PBS/2.5 mM EDTA. Cells were incubated in the microtiter wells (100 000 cells per well) for 60 min at 37° C. in the absence or presence of competing peptides, antibodies or EDTA. Unbound cells were removed by gently washing with PBS and pressing the plate against paper towels. The bound cells were determined by an assay measuring cellular phosphatase activity. Briefly, 100 μl of 50 mM sodium acetate buffer, pH 5.0, containing 1% Triton X-100 and 6 mg/ml p-nitrophenyl phosphate was added per well and incubated for 1 h at 37° C. The reaction was stopped with 50 μl of 1 M NaOH. The absorbance at 405 nm was read on a microplate reader. Alternatively, the attached cells were stained with Crystal Violet essentially as described (Mould et al., 1995).

[3] = tested on: THP-1 cells on von Willebrand factor; type: cell-based; settings: 500 μM; data not shown
Method: In FIG. 5(A), THP-1 cell binding to von Wirebrand factor was examined in the presence of antibodies against the β2 (7E4), αvβ3 (LM609) or αIIbβ3 (P2) integrins. Following a 60 min incubation in von Willebrand factor-coated wells, the bound cells were determined. The data are the mean ±SD of triplicate wells. The experiment was repeated three times.
In FIG. 5(B), TRP-1 cells were allowed to bind to microtiter wells coated with von Willebrand factor, type IV collagen, or fibronectin. The C(1–8;3–9) peptide was included as a competitor in the concentrations described. The bound cells were determined by the phosphatase assay. The data are the mean ±SD of triplicate wells and were similar in four other experiments.
as §2

αMβ2 integrin (Mac-1) = molecular target: T3, αMβ2 integrin (Mac-1) (Homo sapiens, UniProt P11215); test: Phage display biopanning on purified integrin; type: binding; settings: phage bound to αMβ2 integrin, CX7C and CX9C libraries, randomly selected clones
T3 construct: from tissue; host or cells: blood buffy coats (leukocytes)
Method: The αMβ2 integrin was purified by antibody affinity chromatography from buffy coats obtained from Finnish Red Cross Blood Transfusion Service as described previously (Li et al., 1995). Integrin diluted in Tris-buffered saline (TBS)/1 mM MnCl2 was coated onto microtiter wells overnight at 4° C. using one μg per well in the first biopanning and 100, 10 and 1 ng in subsequent pannings. The wells were blocked with 5% BSA in TBS for 1 h at 22° C. and then washed five times with TBS. Biopanning was performed using CX7C and CX9C phage peptide libraries essentially as described (Koivunen et al., 1994). The construction of libraries was modified so that the single-stranded DNA encoding degenerate sequences was converted into a double-stranded form using 5 cycles of PCR with only the reverse primer and then 11 cycles with both the reverse and forward primer. A total of 6 μg of the double-stranded oligonucleotide was purified using QIAGEN PCR purification kit and ligated with 42 μg of the Fuse5 phage vector. The number of recombinants in the libraries was more than 10^9. Phage binding, elution and subsequent amplification in E. coli were repeated five times, and after each panning bacterial colonies were picked up and stored in a 10 μl volume of TBS in microtiter wells at −20° C. For direct colony sequencing, one μl aliquots of the thawed samples were subjected to PCR with 10 pmol each of the forward primer 5′ […] 3′ (SEQ ID NO: 9) and the reverse primer 5′ […] 3′ (SEQ ID NO: 10). The PCR conditions were 92° C. for 30 s, 60° C. for 30 s, and 72° C. for 60 s, and the cycle number was 35. One μl aliquot of the PCR reaction was taken for sequencing using 15 pmol of either one of the primers and analyzed on an ABI 310 apparatus (PE Applied Biosystems, Foster City, Calif.).
After the fifh round of selection, the CX7C library gave a 600-fold enrichment and CX9C a 1000-fold enrichment of phage bound to the integrin in comparison to background. […] Four of them contained the LLG tripeptide motif. The two sequences most strongly enriched were CPCFLLGCC (SEQ ID NO: 3) (LLG-C4) and […] (SEQ ID NO: 11), each observed 15 times in the randomly selected clones, and these were the only clones remaining after searching for high affinity binders by using low integrin coating concentrations.

THP-1 cells = test: Transwell cell migration assay, LLG-C4-GST-coated filters; type: cell-based; settings: 10% serum, 18 h
Method: The in vitro migration of THP-1 cells was studied in closely physiological conditions containing 10% serum to not interfere with adhesive properties of cells. Both the upper and lower surfaces of 8 μm pore size Transwell filters were coated with fibrinogen, LLG-C4-GST, or GST at a concentration of 40 μg/ml overnight at 4° C. Free binding sites were blocked by incubation with 5% BSA/TBS. THP-1 cells (5×10^4 in 100 μl) were plated on the upper compartment in 10% FCS-containing medium. The C(1–8;3–9) or C(1–9;3–8) peptide were included at a concentration of 200 μM. The lower compartment was filled with 750 μl of 10% FCS-containing medium. Following a culture for 18 h at 37° C. the filters were immersed in methanol for 15 min, in water for 10 s, and in 0.1% toluidine blue for 5 min. The filters were then washed 3–5 times with water until cell staining was clear. Cells were removed from the upper surface of the filter with a cotton swap, and cells migrated on the lower surface were counted microscopically. Student's t-test was used for statistical analysis.

[4] = tested on: L929, K562, SKOV-3, KS6717 and Eahy96 cells; test: Adhesion of non-leukocytic cell lines to immobilized peptide or fusion protein; type: cell-based; settings: cells pretreated with phorbol ester or not; data not shown
Method: as §2

Compound: O=C(O)CN(CCN(CC(=O)O)CC(=O)O)CC(=O)O [EDTA, reference compound]
- inhibition of LLG-C4-GST binding to immunocaptured αMβ2 integrin (αMβ2 integrin; EDTA present): inhibited the binding of LLG-C4-GST to the integrin
- inhibition of LLG-C4-GST binding to the I-domain (αM subunit I-domain): blocked the binding
- inhibition of binding of αXβ2-transfected L cells to LLG-C4-GST ([1]; competitor): inhibited
- effect of EDTA on THP-1 binding on LLG-C4-GST ([2]; EDTA 2.5 mM): completely abolished the binding

Compound: CAAGC (Synthetic peptide seen in Fig. 3B) [reference compound]
- competition of THP-1 cell adhesion on LLG-C4-GST substratum [2]: weak competitor of cell adhesion
- inhibition of THP-1 binding to von Willebrand factor at 500 μM [3]: not

Compound: CLLGC (Synthetic peptide seen in Fig. 3B)
- competition of THP-1 cell adhesion on LLG-C4-GST substratum [2]: readily inhibited cell adhesion
- inhibition of THP-1 binding to von Willebrand factor at 500 μM [3]: inhibited

Compound: CPEDLYFFC (Phage sequence bound to the alphaMbeta2 integrin (Mac-1))
- number of isolated nucleotide sequences encoding each peptide (αMβ2 integrin (Mac-1)): (3)

Compound: CPPDLFWYC (Phage sequence bound to the alphaMbeta2 integrin (Mac-1))
- number of isolated nucleotide sequences encoding each peptide (αMβ2 integrin (Mac-1)): (4)

Compound: CWHKDLLGC (Phage sequence bound to the alphaMbeta2 integrin (Mac-1))
- number of isolated nucleotide sequences encoding each peptide (αMβ2 integrin (Mac-1)): (4)

Compound: CWKLLGSEEEC (Stronly enriched sequence)
- number of isolated nucleotide sequences encoding each peptide (αMβ2 integrin (Mac-1)): (15)
- number of isolated nucleotide sequences encoding each peptide (αMβ2 integrin (Mac-1); listed as CWKLGSEEEC): 15

Compound: GST: control GST protein
- binding of GST protein to immunocaptured αMβ2 integrin (αMβ2 integrin): not GST alone
- binding to isolated I-domain of the αM subunit (αM subunit I-domain): did not bind

Compound: LLG-C4 (1): air-oxidised synthetic biscyclic LLG-C4 preparation, highly active (CPCFLLGCC; disulfide (positions not given here))
- inhibition of LLG-C4-GST binding to the I-domain (αM subunit I-domain): blocked the ability of the I-domain to bind the LLG-C4-GST

Compound: LLG-C4 (2): synthetic LLG-C4 preparation, inactive apparently due to disadvantageous disulfide bonding (CPCFLLGCC; disulfide (positions not given here); not fully specified)
- inhibition of LLG-C4-GST binding to the I-domain (αM subunit I-domain): did not inhibit LLG-C4-GST binding to the I-domain

Compound: LLG-C4-GST: LLG-C4 nonapeptide expressed as GST fusion protein in E. coli (CPCFLLGCC-{GST}; cysteine pairing not given here)
- binding of GST protein to immunocaptured αMβ2 integrin (αMβ2 integrin): bound to the αMβ2 integrin in a divalent cation-sensitive manner
- cell migration on LLG-C4-GST compared with other coatings (THP-1 cells): more efficient than on fibronectin or fibrinogen coatings
- fold more cells migrated on LLG-C4-GST substratum than on control GST substratum (THP-1 cells; filter coated at 40 μg/ml): Approximately 10 fold
- binding to isolated I-domain of the αM subunit (αM subunit I-domain): concentration-dependent binding
- difference in binding of αXβ2-transfected L cells to LLG-C4-GST vs. GST ([1]; p=0.016): statistically significant
- binding of phorbol ester-activated THP-1 cells to coated protein ([2]; protein coated on microtiter wells, 60 min): efficiently bound
- binding of non-leukocytic cell lines not expressing β2 integrins [4]: showed no binding
